Results taken from patent publication US11267800B2, “Cyclohexyl acid triazole azines as LPA antagonists” (BRISTOL-MYERS SQUIBB COMPANY, priority 2017, dated 2022).

Biological target: T1, human LPA1 (Homo sapiens, UniProt Q92633)
T1 construct: expressed in transfected cells; host or cells: Chinese hamster ovary (CHO) cells
Assay: LPA1 functional antagonist assay (calcium flux)
Type: cell-based
Details: CHO cells overexpressing human LPA1; inhibition of calcium flux induced by 10 nM LPA; read-out: hLPA1 IC50
Procedure: The effectiveness of compounds of the present invention as LPA1 inhibitors can be determined in an LPA1 functional antagonist assay as follows:
Chinese hamster ovary cells overexpressing human LPA1 were plated overnight (15,000 cells/well) in poly-D-lysine coated 384-well microplates (Greiner bio-one, Cat #781946) in DMEM/F12 medium (Gibco, Cat #11039). Following overnight culture, cells were loaded with calcium indicator dye (AAT Bioquest Inc, Cat #34601) for 30 minutes at 37° C. The cells were then equilibrated to room temperature for 30 minutes before the assay. Test compounds solubilized in DMSO were transferred to 384 well non-binding surface plates (Corning, Cat #3575) using the Labcyte Echo acoustic dispense and diluted with assay buffer [1×HBSS with calcium/magnesium (Gibco Cat #14025-092), 20 mM HEPES (Gibco Cat #15630-080) and 0.1% fatty acid free BSA (Sigma Cat #A9205)] to a final concentration of 0.5% DMSO. Diluted compounds were added to the cells by FDSS6000 (Hamamatsu) at final concentrations ranging from 0.08 nM to 5 μM. and were then incubated for 20 min at room temperature at which time LPA (Avanti Polar Lipids Cat #857130C) was added at final concentrations of 10 nM to stimulate the cells. The compound IC50 value was defined as the concentration of test compound which inhibited 50% of the calcium flux induced by LPA alone. IC50 values were determined by fitting data to a 4-parameter logistic equation (GraphPad Prism, San Diego Calif.).

T1 sequence (Q92633 whole entry): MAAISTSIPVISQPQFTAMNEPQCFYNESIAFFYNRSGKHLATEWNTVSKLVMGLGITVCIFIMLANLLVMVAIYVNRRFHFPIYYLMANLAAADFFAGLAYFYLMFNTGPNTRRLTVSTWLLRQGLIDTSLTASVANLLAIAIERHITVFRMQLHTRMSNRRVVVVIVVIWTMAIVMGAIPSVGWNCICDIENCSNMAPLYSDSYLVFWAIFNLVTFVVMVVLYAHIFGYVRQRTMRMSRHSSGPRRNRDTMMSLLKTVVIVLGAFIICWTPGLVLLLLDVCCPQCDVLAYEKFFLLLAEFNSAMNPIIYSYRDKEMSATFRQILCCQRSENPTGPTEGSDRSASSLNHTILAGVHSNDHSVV

SMILES	IC50
Cc1nc(-c2nnn(C)c2CNc2cc(OC(F)(F)F)ccn2)ccc1O[C@@H]1CCC[C@@H](C(=O)O)C1 [Example 75]	413 nM
Cc1nc(-c2nnn(C)c2CNc2ncc(F)c(NCCc3ccc(Cl)cc3)n2)ccc1O[C@H]1CCC[C@H](C(=O)O)C1 [Example 76]	44 nM
Cc1nc(-c2nnn(C)c2CNc2ccnc(OCC(C)(F)F)n2)ccc1O[C@H]1CCC[C@H](C(=O)O)C1 [Example 77]	65 nM
Cc1nc(-c2nnn(C)c2CNc2nccc(OCC(C)(F)F)n2)ccc1O[C@H]1CCC[C@H](C(=O)O)C1 [Example 78]	34 nM
Cc1nc(-c2nnn(C)c2CNc2nccc(OCC(F)F)n2)ccc1O[C@H]1CCC[C@H](C(=O)O)C1 [Example 79]	80 nM
Cc1nc(-c2nnn(C)c2CNc2ncnc(Oc3ccccc3)n2)ccc1O[C@H]1CCC[C@H](C(=O)O)C1 [Example 80]	135 nM
Cc1nc(-c2nnn(C)c2CNc2nccc(-c3cnccn3)n2)ccc1O[C@H]1CCC[C@H](C(=O)O)C1 [Example 81]	92 nM
COCCOc1ccnc(NCc2c(-c3ccc(O[C@H]4CCC[C@H](C(=O)O)C4)c(C)n3)nnn2C)n1 [Example 82]	122 nM
Cc1nc(-c2nnn(C)c2CNc2nccc(OC3CCOC3)n2)ccc1O[C@H]1CCC[C@H](C(=O)O)C1 (stereo partly shown) [Example 83]	172 nM
Cc1nc(-c2nnn(C)c2CNc2nccc(Oc3ccc(Cl)nc3)n2)ccc1O[C@H]1CCC[C@H](C(=O)O)C1 [Example 84]	383 nM
Cc1nc(-c2nnn(C)c2CNc2nccc(OC3CCCC3)n2)ccc1O[C@H]1CCC[C@H](C(=O)O)C1 [Example 85]	109 nM
Cc1nc(-c2nnn(C)c2CNc2nccc(Oc3cccnc3)n2)ccc1O[C@H]1CCC[C@H](C(=O)O)C1 [Example 86]	91 nM
COCCCCOc1ccnc(NCc2c(-c3ccc(O[C@H]4CCC[C@H](C(=O)O)C4)c(C)n3)nnn2C)n1 [Example 87]	77 nM
CCSc1ccnc(NCc2c(-c3ccc(O[C@H]4CCC[C@H](C(=O)O)C4)c(C)n3)nnn2C)n1 [Example 88]	16 nM
COCCCOc1ccnc(NCc2c(-c3ccc(O[C@H]4CCC[C@H](C(=O)O)C4)c(C)n3)nnn2C)n1 [Example 89]	77 nM
Cc1nc(-c2nnn(C)c2CNc2nccc(OCC(F)(F)F)n2)ccc1O[C@H]1CCC[C@H](C(=O)O)C1 [Example 90]	54 nM
Cc1nc(-c2nnn(C)c2CNc2nccc(OCC(F)(F)C(F)F)n2)ccc1O[C@H]1CCC[C@H](C(=O)O)C1 [Example 91]	32 nM
Cc1nc(-c2nnn(C)c2CNc2ccnc(OCC(C)C)n2)ccc1O[C@H]1CCC[C@H](C(=O)O)C1 [Example 92]	381 nM
Cc1nc(-c2nnn(C)c2CNc2nccc(OCC(C)C)n2)ccc1O[C@H]1CCC[C@H](C(=O)O)C1 [Example 93]	23 nM
Cc1nc(-c2nnn(C)c2CNc2nccc(Oc3cccc(C#N)c3)n2)ccc1O[C@H]1CCC[C@H](C(=O)O)C1 [Example 94]	241 nM
Cc1nc(-c2nnn(C)c2CNc2nc(-c3cccs3)nc(-c3cccs3)n2)ccc1O[C@H]1CCC[C@H](C(=O)O)C1 [Example 95]	1280 nM

SMILES	IC50
Cc1nc(-c2nnn(C)c2CNc2nccc(OC3CCC3)n2)ccc1O[C@H]1CCC[C@H](C(=O)O)C1 [Example 96]	16 nM
CSc1ccnc(NCc2c(-c3ccc(O[C@H]4CCC[C@H](C(=O)O)C4)c(C)n3)nnn2C)n1 [Example 97]	187 nM
Cc1nc(-c2nnn(C)c2CNc2ccnc(OC(C)C(F)(F)F)n2)ccc1O[C@H]1CCC[C@H](C(=O)O)C1 (stereo partly shown) [Example 98]	99 nM
Cc1nc(-c2nnn(C)c2CNc2nccc(OC(C)C(F)(F)F)n2)ccc1O[C@H]1CCC[C@H](C(=O)O)C1 (stereo partly shown) [Example 99]	244 nM
Cc1nc(-c2nnn(C)c2CNc2nccc(Oc3c(F)cc(F)cc3F)n2)ccc1O[C@H]1CCC[C@H](C(=O)O)C1 [Example 100]	85 nM
Cc1nc(-c2nnn(C)c2CNc2nccc(Oc3ccc(F)c(F)c3)n2)ccc1O[C@H]1CCC[C@H](C(=O)O)C1 [Example 101]	28 nM
Cc1nc(-c2nnn(C)c2CNc2nccc(OCCCF)n2)ccc1O[C@H]1CCC[C@H](C(=O)O)C1 [Example 102]	25 nM
Cc1nc(-c2nnn(C)c2CNc2nccc(Oc3cc(F)ccc3F)n2)ccc1O[C@H]1CCC[C@H](C(=O)O)C1 [Example 103]	33 nM
CCCOc1ccnc(NCc2c(-c3ccc(O[C@H]4CCC[C@H](C(=O)O)C4)c(C)n3)nnn2C)n1 [Example 104]	27 nM
COc1cccc(Oc2ccnc(NCc3c(-c4ccc(O[C@H]5CCC[C@H](C(=O)O)C5)c(C)n4)nnn3C)n2)c1 [Example 105]	22 nM
Cc1ccc(Oc2ccnc(NCc3c(-c4ccc(O[C@H]5CCC[C@H](C(=O)O)C5)c(C)n4)nnn3C)n2)cc1 [Example 106]	226 nM
COc1ccc(Oc2ccnc(NCc3c(-c4ccc(O[C@H]5CCC[C@H](C(=O)O)C5)c(C)n4)nnn3C)n2)cc1 [Example 107]	54 nM
Cc1cccc(Oc2ccnc(NCc3c(-c4ccc(O[C@H]5CCC[C@H](C(=O)O)C5)c(C)n4)nnn3C)n2)c1 [Example 108]	152 nM
Cc1nc(-c2nnn(C)c2CNc2nccc(Oc3cccc(F)c3)n2)ccc1O[C@H]1CCC[C@H](C(=O)O)C1 [Example 109]	17 nM
Cc1nc(-c2nnn(C)c2CNc2nccc(Oc3ccc(F)cc3)n2)ccc1O[C@H]1CCC[C@H](C(=O)O)C1 [Example 110]	22 nM
Cc1nc(-c2nnn(C)c2CNc2nccc(-n3ccccc3=O)n2)ccc1O[C@H]1CCC[C@H](C(=O)O)C1 [Example 111]	763 nM
Cc1nc(-c2nnn(C)c2CNc2nccc(Oc3ccc(Cl)cc3)n2)ccc1O[C@H]1CCC[C@H](C(=O)O)C1 [Example 112]	45 nM
Cc1nc(-c2nnn(C)c2CNc2nccc(Oc3ccccn3)n2)ccc1O[C@H]1CCC[C@H](C(=O)O)C1 [Example 113]	191 nM
Cc1nc(-c2nnn(C)c2CNc2nccc(Oc3cc(F)cc(F)c3)n2)ccc1O[C@H]1CCC[C@H](C(=O)O)C1 [Example 114]	17 nM
Cc1nc(-c2nnn(C)c2CNc2nccc(Oc3ccccc3F)n2)ccc1O[C@H]1CCC[C@H](C(=O)O)C1 [Example 115]	25 nM
Cc1nc(-c2nnn(C)c2CNc2nccc(Oc3ccc(F)cc3F)n2)ccc1O[C@H]1CCC[C@H](C(=O)O)C1 [Example 116]	14 nM

SMILES	IC50
Cc1nc(-c2nnn(C)c2CNc2nccc(OC3CC3)n2)ccc1O[C@H]1CCC[C@H](C(=O)O)C1 [Example 117]	32 nM
Cc1nc(-c2nnn(C)c2CNc2ncccc2OC(C)C)ccc1O[C@H]1CCC[C@H](C(=O)O)C1 [Example 118]	448 nM
Cc1nc(-c2nnn(C)c2CNc2ncccc2OC(F)(F)F)ccc1O[C@H]1CCC[C@H](C(=O)O)C1 [Example 119]	793 nM
COc1cnc(NCc2c(-c3ccc(O[C@H]4CCC[C@H](C(=O)O)C4)c(C)n3)nnn2C)nc1C(C)(C)C [Example 120]	344 nM
COc1cnc(NCc2c(-c3ccc(O[C@H]4CCC[C@H](C(=O)O)C4)c(C)n3)nnn2C)nc1C1CCC1 [Example 121]	106 nM
COC(C)(C)c1ccnc(NCc2c(-c3ccc(O[C@H]4CCC[C@H](C(=O)O)C4)c(C)n3)nnn2C)n1 [Example 122]	1130 nM
Cc1nc(-c2nnn(C)c2CNc2ncc(F)c(-c3ccccc3F)n2)ccc1O[C@H]1CCC[C@H](C(=O)O)C1 [Example 123]	79 nM
COCC(C)(C)c1ccnc(NCc2c(-c3ccc(O[C@H]4CCC[C@H](C(=O)O)C4)c(C)n3)nnn2C)n1 [Example 124]	385 nM
Cc1nc(-c2nnn(C)c2CNc2cc(C(F)(F)F)nc(Cl)n2)ccc1O[C@H]1CCC[C@H](C(=O)O)C1 [Example 125]	167 nM
Cc1nc(-c2nnn(C)c2CNc2nccc(CC(C)C)n2)ccc1O[C@H]1CCC[C@H](C(=O)O)C1 [Example 126]	22 nM
Cc1nc(-c2nnn(C)c2CNc2nccc(C(C)(C)CF)n2)ccc1O[C@H]1CCC[C@H](C(=O)O)C1 [Example 127]	22 nM
Cc1nc(-c2nnn(C)c2CNc2nccc(C(C)(C)CO)n2)ccc1O[C@H]1CCC[C@H](C(=O)O)C1 [Example 128]	855 nM
CCc1cc(CC)nc(NCc2c(-c3ccc(O[C@H]4CCC[C@H](C(=O)O)C4)c(C)n3)nnn2C)n1 [Example 129]	102 nM
Cc1nc(-c2nnn(C)c2CNc2nccc(Oc3ccccc3)n2)cnc1O[C@H]1CCC[C@H](C(=O)O)C1 [Example 130]	105 nM
Cc1nc(-c2nnn(C)c2CNc2nccc(C(C)(C)F)n2)ccc1O[C@H]1CCC[C@H](C(=O)O)C1 [Example 132]	53 nM
Cc1nc(-c2nnn(C)c2CNc2nccc(C(C)(F)F)n2)ccc1O[C@H]1CCC[C@H](C(=O)O)C1 [Example 133]	116 nM
CCC(F)(F)c1ccnc(NCc2c(-c3ccc(O[C@H]4CCC[C@H](C(=O)O)C4)c(C)n3)nnn2C)n1 [Example 134]	28 nM
Cc1nc(-c2nnn(C)c2CNc2nccc(C(C)C)n2)cnc1O[C@H]1CCC[C@H](C(=O)O)C1 [Example 135]	296 nM
Cc1nc(-c2nnn(C)c2CNc2nccc(C(C)(C)C)n2)cnc1O[C@H]1CCC[C@H](C(=O)O)C1 [Example 136]	86 nM
